Test systems include SNB-19 CNS; DU-145 prostate; OVCAR-8 ovarian; NCI-H23 lung; NCI-H460 lung; HCT-15 colon; A498 renal; HOP-62 NSCLC; RPMI-8226 leukemia; MDA-MB-435.
What all share (assay): growth of human tumour cells (NCI), 48 h

Where “and” joins values, the source holds several entries; their conditions need not be identical. Identical values can stand only once.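 1) Cells in 96-well plates. 2) Compound, 48 h, 5 concentrations. 3) Linear interpolation between surrounding doses. 4) Unreached endpoint = highest concentration. At the GI50, growth is halved. TGI: concentration producing complete growth inhibition.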

From PubChem BioAssay (NCI) come the findings set out here.

Take `O=C1CC(c2ccc3c(c2)OCO3)Nc2cc3c(cc21)OCO3` (configuration not stated): the GI50 in the test on SNB-19 CNS was 0.687 µM; in the test with DU-145 prostate, 0.405 µM; with OVCAR-8 ovarian, 0.84 µM; in the test on NCI-H23 lung, 0.479 µM; in the test on NCI-H460 lung, 0.353 µM; in the test on HCT-15 colon, 0.432 µM. Moreover, the GI50 was 0.169 µM in the test with A498 renal and 0.523 µM in the test with HOP-62 NSCLC. In addition, the TGI is greater than 100 µM in the test with SNB-19 CNS; 14.7 µM in the test on DU-145 prostate; greater than 100 µM with OVCAR-8 ovarian; greater than 100 µM in the test on NCI-H23 lung; 13 µM in the test on NCI-H460 lung; greater than 100 µM in the test on HCT-15 colon. The values for the TGI in the test on A498 renal and in the test on HOP-62 NSCLC were 0.862 µM and greater than 100 µM, respectively.
For `C/C(=C\c1ccn(-c2ccc(N)c(F)c2)n1)[C@@H]1C[C@@H]2O[C@]2(C)CCC[C@H](C)[C@H](O)[C@@H](C)C(=O)C(C)(C)[C@@H](O)CC(=O)O1`, the GI50 in the test with SNB-19 CNS was 0.048 µM; in the test on DU-145 prostate it was 0.0155 µM; in the test with RPMI-8226 leukemia, 0.00955 µM; in the test with OVCAR-8 ovarian, 0.0239 µM; in the test with NCI-H23 lung, 0.0138 µM; with NCI-H460 lung, 0.00938 µM. In addition, the GI50 in the test with HCT-15 colon was 0.00913 µM; in the test with A498 renal, less than 0.005 µM; in the test on HOP-62 NSCLC, 0.0245 µM. Further, the TGI with SNB-19 CNS was greater than 50 µM; in the test with DU-145 prostate, 0.121 µM; with RPMI-8226 leukemia it was greater than 25.4 µM; in the test with OVCAR-8 ovarian, greater than 50 µM; in the test with NCI-H23 lung it was greater than 50 µM; in the test on NCI-H460 lung, greater than 50 µM. In addition, the TGI was greater than 50 µM in the test with HCT-15 colon, 0.267 µM in the test with A498 renal and greater than 50 µM with HOP-62 NSCLC.
Take `Cc1ccc(/C=C2/SC(Nc3nc(-c4nc(NC5=NC(=O)/C(=C\c6ccc(C)cc6)S5)sc4C)c(C)s3)=NC2=O)cc1`: the GI50 was 10.1 µM in the test on SNB-19 CNS; 0.531 µM in the test on DU-145 prostate; 1.27 µM in the test on RPMI-8226 leukemia; 1.66 µM with OVCAR-8 ovarian; 0.895 µM with NCI-H23 lung; 0.643 µM with NCI-H460 lung. In addition, the GI50 in the test with HCT-15 colon was 0.347 µM; with A498 renal, 1.4 µM; in the test with HOP-62 NSCLC, 0.005 µM. Further, the TGI in the test with SNB-19 CNS is greater than 50 µM; with DU-145 prostate, greater than 9.82 µM; in the test with RPMI-8226 leukemia it was greater than 15 µM; in the test on OVCAR-8 ovarian it was greater than 31.6 µM; in the test with NCI-H23 lung, 8.46 µM; in the test on NCI-H460 lung, greater than 50 µM. In addition, the TGI with HCT-15 colon is greater than 19.6 µM; in the test on A498 renal, 7.52 µM; with HOP-62 NSCLC it was 2.65 µM.
On to `NC(=O)c1oc([N+](=O)[O-])c(-c2ccccc2)c1-c1ccccc1`, for which the TGI in the test with SNB-19 CNS is greater than 100 µM; with DU-145 prostate, 93.4 µM; with OVCAR-8 ovarian, 68.2 µM; in the test with MDA-MB-435 it was 28.7 µM; with NCI-H23 lung, 35 µM; with NCI-H460 lung, greater than 100 µM. Also, the values for the TGI with HCT-15 colon and with HOP-62 NSCLC were 35.4 µM and greater than 100 µM, respectively.
In the case of `CC1=C(C(=O)Nc2cccc(Cl)c2)C(c2ccc([N+](=O)[O-])cc2)C(C(=O)Nc2cccc(Cl)c2)=C(C)N1`, the TGI with SNB-19 CNS is greater than 100 µM; in the test on RPMI-8226 leukemia it was 83.4 µM; in the test on OVCAR-8 ovarian, greater than 100 µM; in the test with NCI-H23 lung, 62.3 µM; in the test with NCI-H460 lung, 50.4 µM; in the test on HCT-15 colon, 79.8 µM. Also, the TGI in the test on A498 renal and with HOP-62 NSCLC was greater than 100 µM throughout.
Regarding `CCCCCCCCCCC(O)[C@H]1CCC(C2CC[C@H]([C@H](O)CCCCCCCCCCC(O)CC3=CC(C)OC3=O)O2)O1` (some centres not stated), the GI50 was 2.05 µM in the test on SNB-19 CNS; 0.615 µM in the test on RPMI-8226 leukemia; 2.29 µM in the test on OVCAR-8 ovarian; less than 0.01 µM in the test on NCI-H23 lung; 2.16 µM in the test with NCI-H460 lung; 1.23 µM in the test on HCT-15 colon. Also, the GI50 in the test with A498 renal is 3.15 µM. The TGI is 6.96 µM and 32.1 µM in the test on SNB-19 CNS; 3.2 µM in the test with RPMI-8226 leukemia; 2.8 µM and 18.4 µM in the test on OVCAR-8 ovarian; 4.03 µM and 7.12 µM with NCI-H23 lung; 4.12 µM and 29.9 µM in the test on NCI-H460 lung; 3.7 µM and 5.88 µM in the test on HCT-15 colon. In addition, the TGI is 9.03 µM and 53.2 µM in the test with A498 renal; 4.89 µM and 5.88 µM with HOP-62 NSCLC.
As to `C=CCN(N=O)C(=O)N(CCCC(NC(C)=O)C(=O)NCc1ccccc1)Cc1ccccc1` (configuration not stated), the TGI in the test with SNB-19 CNS was greater than 100 µM; in the test with RPMI-8226 leukemia, 59.4 µM; in the test with OVCAR-8 ovarian, greater than 100 µM; with NCI-H23 lung it was greater than 100 µM; in the test on NCI-H460 lung, greater than 100 µM; in the test with HCT-15 colon, greater than 100 µM. In addition, the TGI in the test with A498 renal and with HOP-62 NSCLC was greater than 100 µM each time.
For the molecule `Cc1cccc(NC(=O)c2cc3cc(N=Nc4ccccc4Cl)ccc3oc2=O)c1`, the TGI in the test with SNB-19 CNS is greater than 100 µM; in the test with RPMI-8226 leukemia it was greater than 100 µM; in the test with OVCAR-8 ovarian it was greater than 100 µM; with NCI-H23 lung it was 59.5 µM; in the test with NCI-H460 lung, greater than 100 µM; in the test with HCT-15 colon, greater than 100 µM. The TGI with A498 renal and in the test on HOP-62 NSCLC was greater than 100 µM each time.
On to `COc1ccc(C(Cc2cc(OC)c(OC)c(OC)c2)C(=O)O)cc1` (configuration not stated), for which the TGI in the test with SNB-19 CNS, in the test with RPMI-8226 leukemia, in the test on OVCAR-8 ovarian, with NCI-H23 lung, in the test on NCI-H460 lung and in the test with HCT-15 colon was greater than 100 µM each time. For the same molecule, the TGI with A498 renal and in the test on HOP-62 NSCLC was greater than 100 µM throughout.
